Key:
Assay type in all cases: in vivo
[1] = system: Thrips tabaci (onion thrips); test: Thrips tabaci sunflower leaf disc spray test; settings: foliar, 168 h, sunflower leaf discs sprayed at 200 ppm, mixed ages, mortality after 7 days
Method: Sunflower leaf discs were placed on agar in a 24-well microtiter plate and sprayed with test solutions at an application rate of 200 ppm. […] After drying, the leaf discs were infested with a thrip population of mixed ages. After an incubation period of 7 days, samples were checked for mortality.

[2] = system: Spodoptera littoralis (Egyptian cotton leafworm); test: Spodoptera littoralis cotton leaf disc spray test; settings: foliar, 72 h, cotton leaf discs sprayed at 200 ppm, 5 L1 larvae, mortality, feeding behavior, growth regulation 3 days after treatment
Source text: Cotton leaf discs were placed on agar in a 24-well microtiter plate and sprayed with test solutions at an application rate of 200 ppm. After drying, the leaf discs were infested with 5 L1 larvae. The samples were checked for mortality, feeding behavior, and growth regulation 3 days after treatment (DAT).

[3] = system: Heliothis virescens (tobacco budworm); test: Heliothis virescens egg test on artificial diet; settings: 96 h, 200 ppm (concentration in well 18 ppm), eggs 0-24 h old, 4 days, egg mortality, larval mortality, growth regulation
Method: Eggs (0-24 h old) were placed in 24-well microtiter plate on artificial diet and treated with test solutions at an application rate of 200 ppm (concentration in well 18 ppm) by pipetting. After an incubation period of 4 days, samples were checked for egg mortality, larval mortality, and growth regulation.

[4] = system: Myzus persicae (green peach aphid); test: Myzus persicae (sachet) mixed population test; settings: 120 h, sucrose solution, application rate 12.5 ppm, mortality 5 days after infestation
Source text: Test compounds were applied by pipette into 24 well plates and mixed with Sucrose solution. The plates were closed with a stretched Parafilm. A plastic stencil with 24 holes is placed onto the plate and infested pea seedlings were placed directly on the Parafilm. The infested plate is closed with a gel blotting paper and another plastic stencil and then turned upside down. 5 days after infestation the samples were checked on mortality. Application rate: 12.5 ppm.

[5] = system: Tetranychus urticae (two-spotted spider mite); test: Tetranychus urticae bean leaf disc spray test; settings: foliar, 192 h, bean leaf discs sprayed at 200 ppm, mixed ages, egg, larval and adult mortality 8 days later
Source text: Bean leaf discs on agar in 24-well microtiter plates were sprayed with test solutions at an application rate of 200 ppm. After drying, the leaf discs are infested with mite populations of mixed ages. 8 days later, discs are checked for egg mortality, larval mortality, and adult mortality. […]

[6] = system: Plutella xylostella (diamond back moth); test: Plutella xylostella L2 larvae test on artificial diet; settings: 144 h, 200 ppm (concentration in well 18 ppm), 6 days, larval mortality and growth regulation
Method: 24-well microtiter plate (MTP) with artificial diet was treated with test solutions at an application rate of 200 ppm (concentration in well 18 ppm) by pipetting. After drying, the MTPs were infested with L2 larvae (7-12 per well). After an incubation period of 6 days, samples were checked for larval mortality and growth regulation.

[7] = system: Diabrotica balteata (corn root worm); test: Diabrotica balteata L2 larvae test on artificial diet; settings: 120 h, 200 ppm (concentration in well 18 ppm), 5 days, larval mortality and growth regulation
Method in brief: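 Artificial diet treated with test solution at 200 ppm or 12.5 ppm application rate (in-well concentration stated as 18 ppm), dried, then infested with 6-10 L2 larvae per well. Larval mortality and growth regulation scored after 5 days.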

[8] = system: Spodoptera littoralis (Egyptian cotton leaf worm); test: Spodoptera littoralis (systemic) test, compound in agar taken up by salad roots; settings: 120 h, application rate 12.5 ppm, checked 5 days after infestation for mortality, repellent effect, feeding behavior, growth regulation
Source text: (§1) Test compounds were applied by pipette into 24 well plates and mixed with agar. Salad seeds were placed on the agar and the multi well plate is closed by another plate which contains also agar. After 7 days the roots have absorbed the compound and the salad has grown into the lid plate. The salad leafs were now cut off into the lid plate. Spodoptera eggs were pipette through a plastic stencil on a humid gel blotting paper and the plate closed with it. The samples are checked for mortality, repellent effect, feeding behavior, and growth regulation 5 days after infestation. Application rate: 12.5 ppm
as §1, with “infestation.” for “infestation. Application rate: 12.5 ppm”

Cc1cc(C2=CC(c3cc(Cl)cc(Cl)c3)(C(F)(F)F)OC2)ccc1C(=O)NC1CSC1 (stereo not drawn) [Compound A2]
≥ 80%: pest or weed control at 200 ppm [1] | pest or weed control at 200 ppm [2] | pest or weed control at 200 ppm [3] | pest or weed control at 12.5 ppm [4] | pest or weed control at 200 ppm [5]

Cc1cc(C2=CC(c3cc(Cl)cc(Cl)c3)(C(F)(F)F)OC2)ccc1C(=O)NCc1ccc(S(C)(=O)=O)cc1 (stereo not drawn) [Compound A25]
≥ 80%: pest or weed control at 200 ppm [6] | pest or weed control at 200 ppm [2] | pest or weed control at 200 ppm [3] | pest or weed control at 12.5 ppm [4] | pest or weed control at 200 ppm [5] | pest or weed control at 200 ppm [7]

Cc1cc(C2=CC(c3cc(Cl)cc(Cl)c3)(C(F)(F)F)OC2)ccc1C(=O)NC1C[S+]([O-])C1 (stereo not drawn) [Compound A77]
≥ 80%: pest or weed control at 200 ppm [1] | pest or weed control at 12.5 ppm [4]

Cc1cc(C2=CC(c3cc(Cl)cc(Cl)c3)(C(F)(F)F)OC2)ccc1C(=O)NCC1CSC1 (stereo not drawn) [Compound A78]
≥ 80%: pest or weed control at 200 ppm [6] | pest or weed control at 200 ppm [1] | pest or weed control at 200 ppm [2] | pest or weed control at 200 ppm [3] | pest or weed control at 12.5 ppm [4] | pest or weed control at 200 ppm [5] | pest or weed control at 200 ppm [7]

Cc1cc(C2=CC(c3cc(Cl)cc(Cl)c3)(C(F)(F)F)OC2)ccc1C(=O)NCCC1CSC1 (stereo not drawn) [Compound A82]
≥ 80%: pest or weed control at 200 ppm [6] | pest or weed control at 200 ppm [1] | pest or weed control at 200 ppm [2] | pest or weed control at 200 ppm [3] | pest or weed control at 12.5 ppm [4] | pest or weed control at 200 ppm [5] | pest or weed control at 200 ppm [7]

Cc1cc(C2=CC(c3cc(Cl)cc(Cl)c3)(C(F)(F)F)OC2)ccc1C(=O)NCCC1CS(=O)(=O)C1 (stereo not drawn) [Compound A83]
≥ 80%: pest or weed control at 200 ppm [6] | pest or weed control at 200 ppm [2] | pest or weed control at 200 ppm [3] | pest or weed control at 12.5 ppm [4] | pest or weed control at 200 ppm [5] | pest or weed control at 200 ppm [7]

Cc1nc(C2=CC(c3cc(Cl)cc(Cl)c3)(C(F)(F)F)OC2)ccc1C(=O)NC1C[S+]([O-])C1 (stereo not drawn) [Compound C22]
≥ 80%: pest or weed control at 200 ppm [6] | pest or weed control at 200 ppm [1] | pest or weed control at 200 ppm [2] | pest or weed control at 200 ppm [3] | pest or weed control at 12.5 ppm [4] | pest or weed control at 200 ppm [5] | pest or weed control at 200 ppm [7]

Cc1cc(C2=CC(c3cc(Cl)cc(Cl)c3)(C(F)(F)F)OC2)ccc1C(=O)NCC(F)(F)F (stereo not drawn) [Compound D1]
≥ 80%: pest or weed control at 12.5 ppm [8] | pest or weed control at 200 ppm [1]

CCCCNC(=O)c1ccc(C2=CC(c3cc(Cl)cc(Cl)c3)(C(F)(F)F)OC2)cc1C (stereo not drawn) [Compound D3]
≥ 80%: pest or weed control at 200 ppm [1] | pest or weed control at 12.5 ppm [4] | pest or weed control at 200 ppm [5]

COCC(C)NC(=O)c1ccc(C2=CC(c3cc(Cl)cc(Cl)c3)(C(F)(F)F)OC2)cc1C (stereo not drawn) [Compound D4]
≥ 80%: pest or weed control at 200 ppm [1] | pest or weed control at 12.5 ppm [4] | pest or weed control at 200 ppm [5]

Cc1cc(C2=CC(c3cc(Cl)cc(Cl)c3)(C(F)(F)F)OC2)ccc1C(=O)NCC1CCCO1 (stereo not drawn) [Compound D8]
≥ 80%: pest or weed control at 12.5 ppm [8] | pest or weed control at 200 ppm [1] | pest or weed control at 12.5 ppm [4] | pest or weed control at 200 ppm [5]

Cc1cc(C2=CC(c3cc(Cl)cc(Cl)c3)(C(F)(F)F)OC2)ccc1C(=O)NCc1ccccc1 (stereo not drawn) [Compound D9]
≥ 80%: pest or weed control at 200 ppm [6] | pest or weed control at 200 ppm [1] | pest or weed control at 200 ppm [2] | pest or weed control at 200 ppm [3] | pest or weed control at 12.5 ppm [4] | pest or weed control at 200 ppm [5]

Cc1cc(C2=CC(c3cc(Cl)cc(Cl)c3)(C(F)(F)F)OC2)ccc1C(=O)NCc1ccccc1F (stereo not drawn) [Compound D10]
≥ 80%: pest or weed control at 200 ppm [6] | pest or weed control at 200 ppm [1] | pest or weed control at 200 ppm [2] | pest or weed control at 200 ppm [3] | pest or weed control at 12.5 ppm [4] | pest or weed control at 200 ppm [5] | pest or weed control at 200 ppm [7]

Cc1cc(C2=CC(c3cc(Cl)cc(Cl)c3)(C(F)(F)F)OC2)ccc1C(=O)NC(C)c1ccccc1 (stereo not drawn) [Compound D11]
≥ 80%: pest or weed control at 200 ppm [1] | pest or weed control at 12.5 ppm [4] | pest or weed control at 200 ppm [7]

COc1ccc(CNC(=O)c2ccc(C3=CC(c4cc(Cl)cc(Cl)c4)(C(F)(F)F)OC3)cc2C)cc1 (stereo not drawn) [Compound D12]
≥ 80%: pest or weed control at 200 ppm [1] | pest or weed control at 12.5 ppm [4] | pest or weed control at 200 ppm [7]

Cc1cc(NC(=O)c2ccc(C3=CC(c4cc(Cl)cc(Cl)c4)(C(F)(F)F)OC3)cc2C)n(C)n1 (stereo not drawn) [Compound D16]
≥ 80%: pest or weed control at 200 ppm [1] | pest or weed control at 12.5 ppm [4] | pest or weed control at 200 ppm [7]

Cc1cc(C2=CC(c3cc(Cl)cc(Cl)c3)(C(F)(F)F)OC2)ccc1C(=O)NC1(C)CSC1 (stereo not drawn) [Compound D18]
≥ 80%: pest or weed control at 200 ppm [1] | pest or weed control at 12.5 ppm [4] | pest or weed control at 200 ppm [7]

CSCC(C)(C)NC(=O)c1ccc(C2=CC(c3cc(Cl)cc(Cl)c3)(C(F)(F)F)OC2)cc1C (stereo not drawn) [Compound D19]
≥ 80%: pest or weed control at 200 ppm [6] | pest or weed control at 200 ppm [2] | pest or weed control at 200 ppm [3] | pest or weed control at 12.5 ppm [4] | pest or weed control at 200 ppm [5] | pest or weed control at 200 ppm [7]

Cc1cc(C2=CC(c3cc(Cl)cc(Cl)c3)(C(F)(F)F)OC2)ccc1C(=O)NC1C[S+]([O-])C1 (stereo not drawn) [Compound D20]
≥ 80%: pest or weed control at 200 ppm [6] | pest or weed control at 12.5 ppm [8] | pest or weed control at 200 ppm [7]

Cc1cc(C2=CC(c3cc(Cl)cc(Cl)c3)(C(F)(F)F)OC2)ccc1C(=O)NC1CSC1 (stereo not drawn) [Compound D21]
≥ 80%: pest or weed control at 200 ppm [6] | pest or weed control at 12.5 ppm [8] | pest or weed control at 200 ppm [7]

Cc1cc(C2=CC(c3cc(Cl)cc(Cl)c3)(C(F)(F)F)OC2)ccc1C(=O)NC1CCC1 (stereo not drawn) [Compound D23]
≥ 80%: pest or weed control at 200 ppm [6] | pest or weed control at 200 ppm [1] | pest or weed control at 12.5 ppm [4] | pest or weed control at 200 ppm [7]

Cc1cc(C2=COC(c3cc(Cl)cc(Cl)c3)(C(F)(F)F)C2)ccc1C(=O)N[C@@H]1CON(CC(F)(F)F)C1=O (stereo partly drawn) [Compound D25, 4-[2-(3,5-dichlorophenyl)-2-(trifluoromethyl)-3H-furan-4-yl]-2-methyl-N-[(4R)-3-oxo-2-(2,2,2-trifluoroethyl)isoxazolidin-4-yl]benzamide]
≥ 80%: pest or weed control at 200 ppm [6] | pest or weed control at 200 ppm [1] | pest or weed control at 200 ppm [2] | pest or weed control at 200 ppm [3] | pest or weed control at 12.5 ppm [4] | pest or weed control at 200 ppm [5] | pest or weed control at 200 ppm [7]

N#Cc1cc(C2=CO[C@@](c3cc(Cl)cc(Cl)c3)(C(F)(F)F)C2)ccc1-n1cncn1 [H1*, 5-[(2S)-2-(3,5-dichlorophenyl)-2-(trifluoromethyl)-3H-furan-4-yl]-2-(1,2,4-triazol-1-yl)benzonitrile]
≥ 80%: pest or weed control at 200 ppm [6] | pest or weed control at 200 ppm [1] | pest or weed control at 200 ppm [3] | pest or weed control at 12.5 ppm [4] | pest or weed control at 200 ppm [7]

From US20140343049A1, “DIHYDROFURAN DERIVATIVES AS INSECTICIDAL COMPOUNDS” (SYNGENTA PARTICIPATIONS AG, priority 2011, published 2014)
